Results reported in ChEMBL document CHEMBL3621178, “Antidiabetic effect of novel benzenesulfonylureas as PPAR-γ agonists and their anticancer effect” (Bioorg Med Chem Lett, 2015).
Calls of active or inactive are those of the source. The rule behind the calls is not given here.

Key:
[1] = Growth inhibition of human MOLT4 cells assessed as cell viability at 10 uM incubated for 48 hrs by sulforhodamine B assay; type: functional; conditions: MOLT-4, 48 h, read-out: Activity
[2] = Growth inhibition of human RPMI8226 cells assessed as cell viability at 10 uM incubated for 48 hrs by sulforhodamine B assay; type: functional; conditions: RPMI-8226, 48 h, read-out: Activity
MCF7 = experiment: Growth inhibition of human MCF7 cells assessed as cell viability at 10 uM incubated for 48 hrs by sulforhodamine B assay; type: functional; conditions: MCF7, 48 h, read-out: Activity
SNB-75 = experiment: Growth inhibition of human SNB75 cells assessed as cell viability at 10 uM incubated for 48 hrs by sulforhodamine B assay; type: functional; conditions: SNB-75, 48 h, read-out: Activity
ACHN = experiment: Growth inhibition of human ACHN cells assessed as cell viability at 10 uM incubated for 48 hrs by sulforhodamine B assay; type: functional; conditions: read-out: Activity
KM12 = experiment: Growth inhibition of human KM12 cells assessed as cell viability at 10 uM incubated for 48 hrs by sulforhodamine B assay; type: functional; conditions: KM12, 48 h, read-out: Activity
OVCAR-8 = experiment: Growth inhibition of human OVCAR8 cells assessed as cell viability at 10 uM incubated for 48 hrs by sulforhodamine B assay; type: functional; conditions: OVCAR-8, 48 h, read-out: Activity
[3] = Growth inhibition of human RXF393 cells assessed as cell viability at 10 uM incubated for 48 hrs by sulforhodamine B assay; type: functional; conditions: RXF 393, 48 h, read-out: Activity
MDA-MB-231 = experiment: Growth inhibition of human MDA-MB-231 cells assessed as cell viability at 10 uM incubated for 48 hrs by sulforhodamine B assay; type: functional; conditions: MDA-MB-231, 48 h, read-out: Activity
K562 = experiment: Growth inhibition of human K562 cells assessed as cell viability at 10 uM incubated for 48 hrs by sulforhodamine B assay; type: functional; conditions: K562, 48 h, read-out: Activity
SF-268 = experiment: Growth inhibition of human SF268 cells assessed as cell viability at 10 uM incubated for 48 hrs by sulforhodamine B assay; type: functional; conditions: SF-268, 48 h, read-out: Activity
[4] = Growth inhibition of human NCI60 cells assessed as cell viability at 10 uM incubated for 48 hrs by sulforhodamine B assay; type: functional; conditions: NCI60, 48 h, read-out: Activity
IGROV-1 = experiment: Growth inhibition of human IGROV1 cells assessed as cell viability at 10 uM incubated for 48 hrs by sulforhodamine B assay; type: functional; conditions: IGROV-1, 48 h, read-out: Activity
[5] = Growth inhibition of human HCC2998 cells assessed as cell viability at 10 uM incubated for 48 hrs by sulforhodamine B assay; type: functional; conditions: HCC 2998, 48 h, read-out: Activity
U-251 = experiment: Growth inhibition of human U251 cells assessed as cell viability at 10 uM incubated for 48 hrs by sulforhodamine B assay; type: functional; conditions: U-251, 48 h, read-out: Activity
MDA-MB-435 = experiment: Growth inhibition of human MDA-MB-435 cells assessed as cell viability at 10 uM incubated for 48 hrs by sulforhodamine B assay; type: functional; conditions: MDA-MB-435, 48 h, read-out: Activity
[6] = Growth inhibition of human SF295 cells assessed as cell viability at 10 uM incubated for 48 hrs by sulforhodamine B assay; type: functional; conditions: SF-295, 48 h, read-out: Activity
SR = experiment: Growth inhibition of human SR cells assessed as cell viability at 10 uM incubated for 48 hrs by sulforhodamine B assay; type: functional; conditions: read-out: Activity
CCRF-CEM = experiment: Growth inhibition of human CCRF-CEM cells assessed as cell viability at 10 uM incubated for 48 hrs by sulforhodamine B assay; type: functional; conditions: read-out: Activity
UO-31 = experiment: Growth inhibition of human UO31 cells assessed as cell viability at 10 uM incubated for 48 hrs by sulforhodamine B assay; type: functional; conditions: UO-31, 48 h, read-out: Activity
NCI-H522 = experiment: Growth inhibition of human NCI-H522 cells assessed as cell viability at 10 uM incubated for 48 hrs by sulforhodamine B assay; type: functional; conditions: NCI-H522, 48 h, read-out: Activity
Rattus norvegicus [7] = experiment: Antidiabetic activity in STZ-induced diabetic Wistar rat model assessed as reduction in blood glucose level at 30 mg/kg, po repeated for 15 days by GOD-POD method; type: functional, organism-based
SK-MEL-2 = experiment: Growth inhibition of human SK-MEL-2 cells assessed as cell viability at 10 uM incubated for 48 hrs by sulforhodamine B assay; type: functional; conditions: SK-MEL-2, 48 h, read-out: Activity
TK-10 = experiment: Growth inhibition of human TK10 cells assessed as cell viability at 10 uM incubated for 48 hrs by sulforhodamine B assay; type: functional; conditions: TK-10, 48 h, read-out: Activity
[8] = biological target: T1, Peroxisome proliferator-activated receptor gamma (Homo sapiens) (UniProt P37231); experiment: Agonist activity at PPARgamma (unknown origin) expressed in HEK293 cells assessed as receptor transactivation at 10 uM incubated for 24 hrs by luciferase reporter gene assay; type: cell-based
T1 sequence (whole entry): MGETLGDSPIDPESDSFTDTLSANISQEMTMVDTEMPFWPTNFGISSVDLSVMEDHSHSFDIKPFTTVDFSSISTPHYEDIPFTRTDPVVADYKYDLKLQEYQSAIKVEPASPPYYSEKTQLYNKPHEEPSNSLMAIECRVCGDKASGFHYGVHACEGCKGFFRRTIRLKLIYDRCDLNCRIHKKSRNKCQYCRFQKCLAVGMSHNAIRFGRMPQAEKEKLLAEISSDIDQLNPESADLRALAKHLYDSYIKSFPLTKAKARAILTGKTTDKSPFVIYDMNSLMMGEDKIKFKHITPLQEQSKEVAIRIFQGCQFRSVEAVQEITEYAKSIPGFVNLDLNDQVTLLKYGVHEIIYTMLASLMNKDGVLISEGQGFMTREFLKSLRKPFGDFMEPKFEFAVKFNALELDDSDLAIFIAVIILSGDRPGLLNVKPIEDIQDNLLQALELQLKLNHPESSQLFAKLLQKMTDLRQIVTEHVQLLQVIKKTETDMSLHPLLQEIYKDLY

Rattus norvegicus [9] = experiment: Toxicity in STZ-induced diabetic Wistar rat model assessed as increase in body weight at 30 mg/kg, po repeated for 15 days […]; type: organism-based; conditions: in vivo, 360 h

| SMILES | viability at 10 µM [1] [%] | viability at 10 µM [2] [%] | viability at 10 µM (MCF7) [%] | viability at 10 µM (SNB-75) [%] | viability at 10 µM (ACHN) [%] | viability at 10 µM (KM12) [%] | viability at 10 µM (OVCAR-8) [%] | viability at 10 µM [3] [%] | viability at 10 µM (MDA-MB-231) [%] | viability at 10 µM (K562) [%] | viability at 10 µM (SF-268) [%] | viability at 10 µM [4] [%] | viability at 10 µM (IGROV-1) [%] | viability at 10 µM [5] [%] | viability at 10 µM (U-251) [%] | viability at 10 µM (MDA-MB-435) [%] | viability at 10 µM [6] [%] | viability at 10 µM (SR) [%] | viability at 10 µM (CCRF-CEM) [%] | viability at 10 µM (UO-31) [%] | further results |
| --- | --- | --- | --- | --- | --- | --- | --- | --- | --- | --- | --- | --- | --- | --- | --- | --- | --- | --- | --- | --- | --- |
| CN(C)c1ccc(C2CC(c3cc4ccccc4oc3=O)=NN2c2ccc(S(=O)(=O)NC(=O)NCc3ccccc3)cc2)cc1 (configuration not stated) | 66.6 | 66.1 | 47.6 | 27.1 | 58.2 | 72.9 | 71.7 | 85.4 | 78.1 | 59.5 | 87.9 | 65.8 | 97.8 | 90 | 67.8 | 65.5 | 61.7 | 19.7 | 72 | 44.9 |  |
| COc1ccc(C2CC(c3ccco3)=NN2c2ccc(S(=O)(=O)NC(=O)NCc3ccccc3)cc2)cc1 (configuration not stated) | 110 | 102 | 94.7 | 97.8 | 101 | 105 | 97.9 | 113 | 112 | 98 | 103 | 101 | 113 | 109 | 99.3 | 103 | 95.9 | 107 | 99 | 99.4 | viability at 10 µM (NCI-H522): 86.3%; Activity (Rattus norvegicus [7]): Active; viability at 10 µM (SK-MEL-2): 90.7%; viability at 10 µM (TK-10): 93%; Activity [8]: Active; Activity (Rattus norvegicus [9]): Non-toxic |
| COc1ccc(NC(=O)NS(=O)(=O)c2ccc(N3N=C(c4cc5ccccc5oc4=O)CC3c3ccc(N(C)C)cc3)cc2)cc1 (configuration not stated) | 107 | 98 | 83.1 | 70.2 | 89.7 | 101 | 94.9 | 105 | 97 | 114 | 98.8 | 95.5 | 109 | 104 | 91.8 | 102 | 83.8 | 74.3 | 107 | 86 |  |
| O=C(NCc1ccccc1)NS(=O)(=O)c1ccc(N2N=C(c3cc4ccccc4oc3=O)CC2c2cccs2)cc1 (configuration not stated) | 106 | 105 | 94.4 | 82.3 | 102 | 105 | 103 | 123 | 103 | 111 | 103 | 103 | 117 | 106 | 102 | 103 | 93.8 | 98.8 | 108 | 95.7 | viability at 10 µM (NCI-H522): 96.3%; viability at 10 µM (SK-MEL-2): 96%; viability at 10 µM (TK-10): 108% |
| COc1ccc(C2CC(c3cc4ccccc4oc3=O)=NN2c2ccc(S(=O)(=O)NC(=O)Nc3ccccc3C)cc2)cc1 (configuration not stated) | 84.6 | 85.8 | 91.1 | 78.3 | 89.7 | 102 | 99.9 | 116 | 65.9 | 76.8 | 101 | 93.4 | 109 | 107 | 99.4 | 102 | 93.8 | 80.4 | 92.6 | 68.9 | Activity (Rattus norvegicus [7]): Active; Activity [8]: Active; Activity (Rattus norvegicus [9]): Non-toxic |
